In patent US20250120967A1, “TYROSINE KINASES INHIBITORS AND USES THEREOF” (GREAT NOVEL THERAPEUTICS BIOTECH & MEDICALS CORPORATION, priority 2023, published 2025):

How the values were obtained:
Assay in all cases: Tyrosine kinase inhibition assay
Assay type in all cases: biochemical
Settings in all cases: single concentration 1.0 μM, read-out: percent inhibition
DDR1 = DDR1 (Homo sapiens, UniProt Q08345)
Summary of the method: (§1)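 Kinase activity was measured by Z′-LYTE peptide assay with ATP at the apparent Km, in kinase buffer (50 mM HEPES pH 7.5, 0.01% BRIJ-35, 10 mM MgCl2, 1 mM EGTA) with 1% DMSO final. Compounds were tested at a single 1.0 μM concentration and reported as percent inhibition; >80% counted as a hit.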

EPHA6 = target: T1, EPHA6 (Homo sapiens, UniProt Q9UF33)
T1 sequence (Q9UF33 23-1036): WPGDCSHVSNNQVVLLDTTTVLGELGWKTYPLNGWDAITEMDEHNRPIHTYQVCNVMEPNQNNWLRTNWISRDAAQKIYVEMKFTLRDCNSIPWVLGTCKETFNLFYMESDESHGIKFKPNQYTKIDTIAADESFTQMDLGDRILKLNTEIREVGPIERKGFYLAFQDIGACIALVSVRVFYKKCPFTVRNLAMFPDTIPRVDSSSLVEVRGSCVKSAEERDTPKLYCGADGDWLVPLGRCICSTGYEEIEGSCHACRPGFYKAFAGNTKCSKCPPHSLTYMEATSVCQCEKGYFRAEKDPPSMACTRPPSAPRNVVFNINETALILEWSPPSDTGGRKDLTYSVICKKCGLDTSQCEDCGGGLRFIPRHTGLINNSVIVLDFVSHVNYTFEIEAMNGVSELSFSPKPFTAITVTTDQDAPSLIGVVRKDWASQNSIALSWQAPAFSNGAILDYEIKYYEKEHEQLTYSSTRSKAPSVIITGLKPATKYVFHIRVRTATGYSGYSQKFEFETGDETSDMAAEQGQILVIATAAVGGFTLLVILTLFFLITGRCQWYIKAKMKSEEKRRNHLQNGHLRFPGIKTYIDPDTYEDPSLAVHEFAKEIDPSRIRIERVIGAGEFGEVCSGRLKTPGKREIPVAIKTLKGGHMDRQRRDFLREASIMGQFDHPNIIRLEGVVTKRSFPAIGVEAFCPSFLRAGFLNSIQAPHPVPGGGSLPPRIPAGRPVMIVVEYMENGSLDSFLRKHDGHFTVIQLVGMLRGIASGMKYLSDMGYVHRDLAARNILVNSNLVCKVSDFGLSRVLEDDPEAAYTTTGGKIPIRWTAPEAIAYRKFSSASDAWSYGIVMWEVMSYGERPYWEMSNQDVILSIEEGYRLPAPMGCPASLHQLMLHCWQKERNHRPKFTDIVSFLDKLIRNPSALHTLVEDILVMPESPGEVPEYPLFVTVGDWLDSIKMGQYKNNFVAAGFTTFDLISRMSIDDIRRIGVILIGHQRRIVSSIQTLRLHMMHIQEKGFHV
Summary of the method: as §1

EPHB4 = target: T2, EPHB4 (Homo sapiens, UniProt P54760)
T2 sequence (P54760 16-987): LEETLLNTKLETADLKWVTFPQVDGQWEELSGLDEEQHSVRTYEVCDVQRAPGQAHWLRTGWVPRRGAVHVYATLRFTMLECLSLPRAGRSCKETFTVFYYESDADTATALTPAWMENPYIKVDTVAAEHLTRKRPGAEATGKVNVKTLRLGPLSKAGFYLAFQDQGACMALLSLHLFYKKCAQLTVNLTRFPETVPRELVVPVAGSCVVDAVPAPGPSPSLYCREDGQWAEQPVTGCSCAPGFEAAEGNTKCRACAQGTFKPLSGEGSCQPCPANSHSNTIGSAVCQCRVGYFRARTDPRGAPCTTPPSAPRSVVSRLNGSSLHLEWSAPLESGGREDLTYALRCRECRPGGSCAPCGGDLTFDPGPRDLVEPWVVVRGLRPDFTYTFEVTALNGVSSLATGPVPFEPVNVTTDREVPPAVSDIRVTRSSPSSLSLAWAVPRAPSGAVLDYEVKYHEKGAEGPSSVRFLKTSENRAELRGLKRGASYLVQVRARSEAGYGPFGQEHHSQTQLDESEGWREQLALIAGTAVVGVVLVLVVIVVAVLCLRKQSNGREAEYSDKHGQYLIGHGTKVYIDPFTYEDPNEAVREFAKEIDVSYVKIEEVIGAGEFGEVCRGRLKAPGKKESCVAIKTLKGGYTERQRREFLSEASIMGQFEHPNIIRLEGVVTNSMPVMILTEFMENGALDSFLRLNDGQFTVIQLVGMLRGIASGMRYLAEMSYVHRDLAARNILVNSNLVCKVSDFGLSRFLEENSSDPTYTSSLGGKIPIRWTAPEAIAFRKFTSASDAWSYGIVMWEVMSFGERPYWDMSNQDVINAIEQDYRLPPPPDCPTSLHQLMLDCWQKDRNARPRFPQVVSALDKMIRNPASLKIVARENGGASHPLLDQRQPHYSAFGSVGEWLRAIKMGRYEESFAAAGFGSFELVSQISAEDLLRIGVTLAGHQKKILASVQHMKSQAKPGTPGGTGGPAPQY
Summary of the method: as §1

PIK3C3 (hVPS34) = PIK3C3 (hVPS34) (Homo sapiens, UniProt Q8NEB9)
Summary of the method: as §1

[1] = target: PIK3CD/PIK3R1 (p110 delta/p85 alpha) (Homo sapiens, UniProt O00329)
Summary of the method: as §1

DDR1, sequence (Q08345 19-913): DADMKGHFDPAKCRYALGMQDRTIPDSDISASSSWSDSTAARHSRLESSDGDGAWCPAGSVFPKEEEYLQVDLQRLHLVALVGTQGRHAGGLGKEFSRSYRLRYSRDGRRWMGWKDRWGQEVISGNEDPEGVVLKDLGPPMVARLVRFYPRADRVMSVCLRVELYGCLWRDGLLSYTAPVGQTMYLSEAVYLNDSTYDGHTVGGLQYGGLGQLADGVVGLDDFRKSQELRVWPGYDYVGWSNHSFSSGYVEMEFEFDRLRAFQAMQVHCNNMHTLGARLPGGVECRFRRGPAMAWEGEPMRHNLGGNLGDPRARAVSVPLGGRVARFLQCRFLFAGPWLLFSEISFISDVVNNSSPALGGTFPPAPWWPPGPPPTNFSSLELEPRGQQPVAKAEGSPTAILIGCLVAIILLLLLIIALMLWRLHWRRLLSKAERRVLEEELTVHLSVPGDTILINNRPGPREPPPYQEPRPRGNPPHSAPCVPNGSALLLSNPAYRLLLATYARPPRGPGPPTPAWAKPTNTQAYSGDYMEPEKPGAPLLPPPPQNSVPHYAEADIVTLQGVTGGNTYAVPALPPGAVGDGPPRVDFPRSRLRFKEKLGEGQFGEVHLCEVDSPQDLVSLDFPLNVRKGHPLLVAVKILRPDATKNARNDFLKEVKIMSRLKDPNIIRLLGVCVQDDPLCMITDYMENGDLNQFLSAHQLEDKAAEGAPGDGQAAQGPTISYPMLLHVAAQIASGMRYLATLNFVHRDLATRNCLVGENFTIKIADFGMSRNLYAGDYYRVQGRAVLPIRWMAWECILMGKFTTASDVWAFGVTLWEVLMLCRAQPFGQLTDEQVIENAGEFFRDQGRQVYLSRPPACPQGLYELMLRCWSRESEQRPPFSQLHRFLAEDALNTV
PIK3C3 (hVPS34), sequence (Q8NEB9 whole entry): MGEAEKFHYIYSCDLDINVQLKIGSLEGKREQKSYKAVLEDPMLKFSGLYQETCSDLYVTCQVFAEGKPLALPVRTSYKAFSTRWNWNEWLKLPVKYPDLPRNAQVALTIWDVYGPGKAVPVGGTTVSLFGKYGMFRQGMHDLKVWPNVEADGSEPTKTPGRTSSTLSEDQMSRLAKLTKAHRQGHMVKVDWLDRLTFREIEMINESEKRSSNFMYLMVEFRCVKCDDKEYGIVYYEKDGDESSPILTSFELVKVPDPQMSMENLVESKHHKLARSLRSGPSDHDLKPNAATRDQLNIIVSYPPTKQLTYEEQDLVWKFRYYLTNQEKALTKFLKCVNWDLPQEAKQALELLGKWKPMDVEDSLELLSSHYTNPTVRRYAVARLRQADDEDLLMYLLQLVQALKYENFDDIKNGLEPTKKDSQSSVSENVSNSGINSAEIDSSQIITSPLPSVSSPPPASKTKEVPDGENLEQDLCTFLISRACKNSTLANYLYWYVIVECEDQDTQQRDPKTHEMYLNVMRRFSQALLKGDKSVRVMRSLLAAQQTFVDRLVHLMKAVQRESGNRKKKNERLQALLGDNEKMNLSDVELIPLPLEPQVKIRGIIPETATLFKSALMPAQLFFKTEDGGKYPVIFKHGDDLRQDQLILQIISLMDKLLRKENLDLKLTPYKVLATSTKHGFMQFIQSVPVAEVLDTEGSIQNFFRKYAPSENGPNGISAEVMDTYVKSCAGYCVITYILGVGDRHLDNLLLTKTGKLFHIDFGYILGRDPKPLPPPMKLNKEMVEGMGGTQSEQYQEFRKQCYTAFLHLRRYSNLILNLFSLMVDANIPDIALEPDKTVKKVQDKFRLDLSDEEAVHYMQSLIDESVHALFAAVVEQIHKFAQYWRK
PIK3CD/PIK3R1 (p110 delta/p85 alpha), sequence (O00329 whole entry): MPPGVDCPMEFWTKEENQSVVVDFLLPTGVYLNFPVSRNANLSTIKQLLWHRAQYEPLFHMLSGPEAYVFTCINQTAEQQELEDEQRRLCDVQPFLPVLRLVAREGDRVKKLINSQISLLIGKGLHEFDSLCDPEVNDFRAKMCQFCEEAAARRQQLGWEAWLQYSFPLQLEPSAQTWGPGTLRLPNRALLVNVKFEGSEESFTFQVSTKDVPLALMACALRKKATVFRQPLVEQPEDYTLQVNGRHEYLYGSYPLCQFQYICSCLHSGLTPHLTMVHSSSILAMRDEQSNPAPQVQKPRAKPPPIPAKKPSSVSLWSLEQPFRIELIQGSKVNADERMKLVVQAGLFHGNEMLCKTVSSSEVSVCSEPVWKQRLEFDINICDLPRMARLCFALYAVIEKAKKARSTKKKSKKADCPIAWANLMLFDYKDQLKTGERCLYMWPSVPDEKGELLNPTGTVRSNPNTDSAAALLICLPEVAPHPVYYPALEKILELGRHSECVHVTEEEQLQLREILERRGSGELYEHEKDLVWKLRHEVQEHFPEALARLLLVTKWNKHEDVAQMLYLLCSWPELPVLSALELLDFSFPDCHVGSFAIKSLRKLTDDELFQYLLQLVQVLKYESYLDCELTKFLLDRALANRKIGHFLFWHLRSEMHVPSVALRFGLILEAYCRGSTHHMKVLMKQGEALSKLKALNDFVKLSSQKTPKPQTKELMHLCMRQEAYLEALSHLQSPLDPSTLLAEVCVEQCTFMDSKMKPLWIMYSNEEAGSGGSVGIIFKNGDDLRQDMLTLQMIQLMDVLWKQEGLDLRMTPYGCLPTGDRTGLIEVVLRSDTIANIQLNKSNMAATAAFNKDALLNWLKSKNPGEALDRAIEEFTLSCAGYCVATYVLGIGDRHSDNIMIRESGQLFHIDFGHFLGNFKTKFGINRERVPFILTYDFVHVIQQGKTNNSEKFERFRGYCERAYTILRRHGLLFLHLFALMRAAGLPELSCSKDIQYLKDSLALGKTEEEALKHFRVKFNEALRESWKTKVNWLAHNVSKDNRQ
PIK3CD/PIK3R1 (p110 delta/p85 alpha), sequence (P27986 whole entry partner): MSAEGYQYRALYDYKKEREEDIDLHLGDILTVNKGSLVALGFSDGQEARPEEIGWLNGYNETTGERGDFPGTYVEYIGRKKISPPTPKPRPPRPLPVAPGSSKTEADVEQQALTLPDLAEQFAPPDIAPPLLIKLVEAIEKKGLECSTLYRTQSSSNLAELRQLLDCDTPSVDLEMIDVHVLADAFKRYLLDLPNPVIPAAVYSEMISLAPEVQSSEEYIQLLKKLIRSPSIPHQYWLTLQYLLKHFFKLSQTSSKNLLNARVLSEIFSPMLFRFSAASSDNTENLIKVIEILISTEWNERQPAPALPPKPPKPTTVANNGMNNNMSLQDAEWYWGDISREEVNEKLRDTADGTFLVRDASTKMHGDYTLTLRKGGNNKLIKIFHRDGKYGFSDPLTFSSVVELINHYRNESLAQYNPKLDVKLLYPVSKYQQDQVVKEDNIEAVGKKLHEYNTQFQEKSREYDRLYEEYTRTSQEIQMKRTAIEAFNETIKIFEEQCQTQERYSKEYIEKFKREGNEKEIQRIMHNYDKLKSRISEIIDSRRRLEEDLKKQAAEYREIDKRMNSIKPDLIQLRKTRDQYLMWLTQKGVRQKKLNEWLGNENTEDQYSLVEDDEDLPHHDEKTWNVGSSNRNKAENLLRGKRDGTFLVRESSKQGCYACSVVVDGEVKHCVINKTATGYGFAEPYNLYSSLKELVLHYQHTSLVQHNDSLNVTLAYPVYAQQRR

| Compound | inhibition at 1 µM (DDR1) [%] | inhibition at 1 µM (EPHA6) [%] | inhibition at 1 µM (EPHB4) [%] | inhibition at 1 µM (PIK3C3 (hVPS34)) [%] | inhibition at 1 µM [1] [%] |
| --- | --- | --- | --- | --- | --- |
| COc1cc2nccc(Oc3ccc(NC(=O)C4(C(=O)Nc5ccc(F)cc5)CC4)cc3)c2cc1OC [Cabozantinib, reference compound] | 100 | 103 | 93 | 0 | -1 |
| COc1cc2nccc(Oc3ccc(NC(=O)C4(NC(=O)c5ccc(F)cc5)CC4)cc3F)c2cc1OC [Cbo-02, N-(1-((4-((6,7-diMethoxyquinolin-4-yl)oxy)-3-fluorophenyl)carbamoyl)cyclopropyl)-4-fluorobenzamide] | 51 | 75 | 27 | 1 | -6 |
| COc1cc2nccc(Oc3ccc(NC(=O)C4(NC(=O)c5ccc(F)cc5)CC4)cc3F)c2cc1Oc1ccc(N)cc1F [Cbo-10] | 50 | 94 | 50 | -5 | 12 |
| COc1cc2nccc(Oc3ccc(NC(=O)C4(NC(=O)c5ccc(F)cc5)CC4)cc3F)c2cc1Oc1c(F)cc(N)cc1F [Cbo-14] | 53 | 96 | 76 | 6 | 16 |
| COc1cc2nccc(Oc3ccc(NC(=O)C4(C(=O)Nc5ccc(F)cc5)CC4)cc3F)c2cc1Oc1ccc(N)cc1F [Cbo-23] | 92 | 100 | 103 | -4 | 2 |
